Here are results for two compounds from patent publication US11407647B2, “Synthetic caustic composition” (FLUID ENERGY GROUP LTD., priority 2017, dated 2022).

For data set [1] the following is noted: background statement on sodium hydroxide solutions, cited from earlier work.
A further data set deals with human skin. The conditions noted are these: in vivo.
The nature of data set [2]: Freezing point of caustic solutions. In kind it is physicochemical.

Like-named read-outs stand apart in the source and are kept apart here.

Take `[Na+].[OH-]` [25 wt % NaOH, sodium hydroxide]: in data set [1] (listed as 25% solution), the “freeze point (begins to freeze / will freeze)” value is listed as −17 Celsius. The “effect on human skin” value with human skin is listed as “immediate burning of the skin, followed with scarring”. This compound had a freezing point in data set [2] of −18 °C.

Turning to `[Na+].[OH-]` [50% sodium hydroxide solution, sodium hydroxide], in data set [1], the “freeze point (begins to freeze / will freeze)” value is given as 14 Celsius.
